Data: patent US20070238141A1, “Method for measuring kinase activity” (SYSMEX CORPORATION, priority 2006, published 2007)

What was measured:
Assay type in all cases: biochemical, human
[1] = system: receptor tyrosine kinase present in a cell membrane of MDA-MB231; experiment: Influence of inhibitor on kinase activity of receptor tyrosine kinase, GST-poly (Glu,Tyr) substrate, Western blotting, sample i; settings: reaction solution containing 100 μM inhibitor, C (no inhibitor) = 100%, FIG. 8
Description: (§1) A culturing cell (MDA-MB231) derived from a breast cancer was cultured to 80% confluent (about 10^7 cells) in a 225 cm^2 flask. This cultured cell and 1 ml of a cell treating solution (containing 20 mM HEPES pH7.4, 0.2% PI, 10% glycerol, 200 μM Na3VO4, and 50 mM NaF) were mixed, and a cell membrane was destructed by pressurizing using a pestle to prepare a cell solution. The resulting cell solution was centrifuged, and the supernatant was discarded. A precipitate and a cell membrane solubilizing solution (containing 20 mM HEPES pH7.4, 1% NP40, 0.2% PI, 10% glycerol, 200 μM Na3VO4, and 50 mM NaF) were mixed, a cell membrane was solubilized by pressurizing using a pestle, and this was centrifuged to recover the supernatant. This supernatant was used as a sample for a reaction in the following enzyme reaction. Similarly, a sample for a reaction solution was prepared from MDA-MB468 and SKBr3 which are a cultured cell derived from a breast cancer, respectively. Herein, a sample prepared from MDA-MB231 is designated as a sample for reaction “i”, a sample prepared from MDA-MB468 is designated as a sample for reaction “ii”, and a sample prepared from SKBr3 is designated as a sample for reaction “iii”. All samples for a reaction were prepared so that a concentration of a contained protein became 0.8 mg/ml.
(§2) Each 25μ of samples for a reaction were accommodated in four tubes. […]
(§3) Using these “PD”, “W”, “AG” and “C”, Western blotting was performed according to the same method as that of Example 6. Results are shown by a graph in which a fluorescent intensity of a band of a phosphorylated GST-poly (Glu,Tyr) fused protein detected in a fluorescent photograph of Western blotting was digitalized using an exclusive use analyzing software. […]

[2] = system: receptor tyrosine kinase present in a cell membrane of MDA-MB468; experiment: Influence of inhibitor on kinase activity of receptor tyrosine kinase, GST-poly (Glu,Tyr) substrate, Western blotting, sample ii; settings: reaction solution containing 100 μM inhibitor, C (no inhibitor) = 100%, FIG. 9
Description: as §1, §2, §3

[3] = system: receptor tyrosine kinase present in a cell membrane of SKBr3; experiment: Influence of inhibitor on kinase activity of receptor tyrosine kinase, GST-poly (Glu,Tyr) substrate, Western blotting, sample iii; settings: reaction solution containing 100 μM inhibitor, C (no inhibitor) = 100%, FIG. 10
Description: as §1, §2, §3

[4] = system: receptor tyrosine kinase present in a cell membrane of SKBr3; experiment: Influence of ligand on kinase activity of receptor tyrosine kinase, GST-poly (Glu,Tyr) substrate, Western blotting; settings: reaction solution containing 100 ng of Heregulin (H) vs no ligand (C); SKBr3 membrane sample; FIG. 11
Description: A culturing cell (MDA-MB231) derived from a breast cancer was cultured to 80% confluent (about 10^7 cells) in a 225 cm^2 flask. This cultured cell and 1 ml of a cell treating solution (containing 20 mM HEPES pH7.4, 0.2% PI, 10% glycerol, 200 μM Na3VO4, and 50 mM NaF) were mixed, and a cell membrane was destructed by pressurizing using a pestle to prepare a cell solution. The resulting cell solution was centrifuged, and the supernatant was discarded. A precipitate and a cell membrane solubilizing solution (containing 20 mM HEPES pH7.4, 1% NP40, 0.2% PI, 10% glycerol, 200 μM Na3VO4, and 50 mM NaF) were mixed, a cell membrane was solubilized by pressurizing using a pestle, and this was centrifuged to recover the supernatant. This supernatant was used as a sample for a reaction in the following enzyme reaction. Similarly, a sample for a reaction solution was prepared from MDA-MB468 and SKBr3 which are a cultured cell derived from a breast cancer, respectively. […]
Using these “H” and “C”, Western blotting was performed according to the same method as that of Example 6. And, a fluorescent intensity of a band of a phosphorylated GST-poly (Glu,Tyr) fused protein detected in a fluorescent photograph was digitalized using an exclusive use analyzing software. […]

Row | Molecule | fluorescent intensity of band of phosphorylated GST-poly (Glu,Tyr) fused protein compared with C [1] | fluorescent intensity of band of phosphorylated GST-poly (Glu,Tyr) fused protein compared with C [2] | fluorescent intensity of band of phosphorylated GST-poly (Glu,Tyr) fused protein compared with C [3] | fluorescent intensity of band of phosphorylated GST-poly (Glu,Tyr) fused protein compared with C [4]
1 | CNc1cc2c(Nc3cccc(Br)c3)ncnc2cn1 [PD158780] | not inhibited | reduced | reduced | –
2 | Heregulin | – | – | – | higher
3 | COc1cc2ncnc(Nc3cccc(Cl)c3)c2cc1OC [AG1478] | not inhibited | reduced | reduced | –
4 | COc1cc2ncnc(Nc3ccc(OCc4ccccc4)cc3)c2cc1OC [W4557] | not inhibited | reduced | reduced | –
